{"source": "paper PMC9986241", "about": "(Signal Transduction and Targeted Therapy, 2023)", "key": {"[1]": {"test_system": "A375 (BRAF V600E) CDX", "experiment": "Cell-derived xenograft (CDX)", "settings": "50 mg/kg, oral gavage", "experimental": "(§1) Tumor volume (mm^3) = (length × width × height) × 0.52. SK-MEL-2: n = 10; A375 and SK-MEL-28: n = 8; HCT116: n = 9. b The photographs show tumors from CDX mice treated with vehicle, erianin, vemurafenib, or the combination. c The weight of the tumors was quantified and expressed as the treatment groups compared with the vehicle-treated group. […] The tissue lysates were prepared from CDX tumor tissues in each treatment group. […] Each point represents the IOD values of four quantified data from one mouse. Scale bars: 50 μm.\n(§2) The animal experiments were performed according to the guidelines approved by the Zhengzhou University Institutional Animal Care and Use Committee. A375 cell line (1 × 10^7 cell/mouse), SK-MEL-28 cell line (5 × 10^6 cell/mouse), SK-MEL-2 cell (5 × 10^6 cell/mouse), and HCT116 cell line (1 × 10^7 cell/mouse) were injected subcutaneously into the NOD-SCID mice (Vital River Labs, Beijing, China). For the melanoma PDX mice model, the tumor was taken after surgical operation and implanted into the NPG (Vital River Labs, Beijing, China) mice under a sterile environment. For the colorectal cancer PDX mice model, NOD-SCID mice were selected as carriers for tumor growth. The measurement of tumor size was performed twice a week using vernier caliper and the calculation of tumor volume was done according to tumor volume (mm^3) = length × width × height × 0.52."}, "[2]": {"test_system": "SK-MEL-28 (BRAF V600E) CDX", "experiment": "Cell-derived xenograft (CDX)", "settings": "50 mg/kg, oral gavage", "experimental": "as §1, §2"}, "[3]": {"experiment": "Pharmacokinetic assay", "assay_type": "in vivo, Kunming mice", "settings": "Kunming, mouse, plasma; oral gavage 50 mg/kg vs tail vein injection 25 mg/kg", "source_text": "For pharmacokinetic study of erianin, LC-MS/MS was implemented to monitor the plasma concentration over times and associated parameters. Chromatographic separation was obtained on an ZORBAX SB-C18 column (3.5 μm, 3.0 × 100 mm). 85% acetonitrile was selected as the mobile phase. The conditions of ESI source were optimized as follows: Spray voltage 4000 V; nitrogen for dying with a flow rate of 11 L/min. Detect the selected reaction monitoring mode for quantification, m/z 315.0 > 180.8 for IS and m/z 319.1 > 150.9 for erianin, respectively. 2′-Hydroxy-4,4′,6′-trimethoxychalcone (500 ng/mL) was selected as internal standard. After the validation of standard curves (0.1, 1, 5, 10, 50, 100, 500, 800, and 1200 ng/mL for oral; 10, 50, 100, 500, 800, 1200, 2400, 4800, 9600 ng/mL for intravenous) and methods including selectivity, linearity, sensitivity, precision and stability, erianin was given to Kunming mice through oral gavage (50 mg/kg, n = 6) or tail vein injection (25 mg/kg, n = 4). A series of time points including 0, 0.083, 0.25, 0.5, 0.75, 1, 2, 3, 4, and 8 h were set for blood extraction. The pharmacokinetic parameters were analyzed using DAS 2.0. Absolute bioavailability (F%) = (AUCoral × Div)/(AUCiv × Doral) × 100%."}, "[4]": {"test_system": "SK-MEL-2 (NRAS mut) CDX", "experiment": "Cell-derived xenograft (CDX)", "assay_type": "in vivo, NOD-SCID mice", "settings": "50 mg/kg, oral gavage", "experimental": "as §1, §2"}, "[5]": {"test_system": "HCT116 (KRAS mut) CDX", "experiment": "Cell-derived xenograft (CDX)", "assay_type": "in vivo, NOD-SCID mice", "settings": "50 mg/kg, oral gavage", "experimental": "as §1, §2"}, "[6]": {"target": "T1, BRAF (Homo sapiens, UniProt P15056, V600E)", "T1 construct": "endogenous in cells; host or cells: A375", "T1 sequence (P15056 whole entry V600E)": "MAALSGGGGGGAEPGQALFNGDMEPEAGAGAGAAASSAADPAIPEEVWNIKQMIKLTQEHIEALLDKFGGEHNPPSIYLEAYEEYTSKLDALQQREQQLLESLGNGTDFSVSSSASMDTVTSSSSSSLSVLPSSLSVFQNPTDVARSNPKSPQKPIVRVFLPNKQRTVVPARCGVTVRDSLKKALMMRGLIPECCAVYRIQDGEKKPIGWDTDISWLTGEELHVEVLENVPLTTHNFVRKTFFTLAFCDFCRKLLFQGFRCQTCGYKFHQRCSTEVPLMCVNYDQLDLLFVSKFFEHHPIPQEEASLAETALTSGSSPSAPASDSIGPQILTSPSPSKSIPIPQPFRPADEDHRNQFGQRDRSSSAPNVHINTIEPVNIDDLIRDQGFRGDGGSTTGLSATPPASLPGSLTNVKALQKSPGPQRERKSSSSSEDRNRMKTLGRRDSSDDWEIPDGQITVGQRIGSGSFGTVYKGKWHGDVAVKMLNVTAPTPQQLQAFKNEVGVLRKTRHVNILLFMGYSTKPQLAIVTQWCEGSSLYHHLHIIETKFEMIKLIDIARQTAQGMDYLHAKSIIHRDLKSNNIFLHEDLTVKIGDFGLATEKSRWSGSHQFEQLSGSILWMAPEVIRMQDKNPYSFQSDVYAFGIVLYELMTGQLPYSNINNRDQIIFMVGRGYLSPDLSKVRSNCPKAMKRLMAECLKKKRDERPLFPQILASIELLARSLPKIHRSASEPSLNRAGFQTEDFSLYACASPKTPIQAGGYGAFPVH", "experiment": "Erianin-conjugated Sepharose 4B bead pull-down assay", "assay_type": "binding", "settings": "in vitro and ex vivo (A375 cell lysate)", "experimental": "Cell lysate (500 μg) or recombinant proteins (200 ng) were incubated with erianin-CNBr activated sepharose 4B overnight at 4 °C, and the protein-beads complex was washed four times by the use of rotational incubator to remove non-specific binding. Western blotting was developed to check the pull-down bands."}, "[7]": {"test_system": "SK-MEL-2, A375, SK-MEL-28, and HCT 116 cells", "experiment": "MTT growth assay at 24, 48, or 72 h", "assay_type": "cell-based, human", "settings": "both BRAF and RAS mutant cell lines", "experimental": "(§3) The synergism and antagonism (CI value) were determined and analyzed using CompuSyn 1.0.\n(§4) For cytotoxicity test, normal NHDF (5000 cells/well) and NHEM cell line (3000 cells/well) were planted into 96-well plates. For cell proliferation assay, A375 (1500 cells/well), SK-MEL-28 (3000 cells/well), SK-MEL-2 (4000 cells/well), and HCT116 (1500 cells/well) were planted into 96-well plates, determined concentration of drug was added after culture for 24 h. The viability of the cells was detected within 72 h using MTT solution (5 mg/mL). The absorbance at 570/490 nm was quantified by the use of the microplate reader."}, "[8]": {"test_system": "SK-MEL-2, A375, SK-MEL-28, and HCT 116", "experiment": "Combination index assay", "assay_type": "cell-based, human", "settings": "erianin with vemurafenib; most of the CI; BRAF and RAS mutant cell lines", "experimental": "as §3, §3"}, "[9]": {"test_system": "A375 (BRAF V600E)", "experiment": "Cell proliferation MTT assay", "assay_type": "cell-based", "settings": "Homo sapiens, A-375, 72 h", "experimental": "as §3, §4"}, "[10]": {"test_system": "SK-MEL-2 (NRAS mut)", "experiment": "Cell proliferation MTT assay", "assay_type": "cell-based", "settings": "Homo sapiens, SK-MEL-2, 72 h", "experimental": "as §3, §4"}, "[11]": {"test_system": "HCT116 (KRAS mut)", "experiment": "Cell proliferation MTT assay", "assay_type": "cell-based", "settings": "Homo sapiens, HCT-116, 72 h", "experimental": "as §3, §4"}, "[12]": {"test_system": "SK-MEL-28 (BRAF V600E)", "experiment": "Cell proliferation MTT assay", "assay_type": "cell-based", "settings": "Homo sapiens, SK-MEL-28, 72 h", "experimental": "as §3, §4"}, "[13]": {"target": "T2, BRAF WT (381-end) (Homo sapiens, UniProt P15056)", "T2 construct": "purchased Signal Chem B08-11BG", "T2 sequence (P15056 381-766 limits assumed)": "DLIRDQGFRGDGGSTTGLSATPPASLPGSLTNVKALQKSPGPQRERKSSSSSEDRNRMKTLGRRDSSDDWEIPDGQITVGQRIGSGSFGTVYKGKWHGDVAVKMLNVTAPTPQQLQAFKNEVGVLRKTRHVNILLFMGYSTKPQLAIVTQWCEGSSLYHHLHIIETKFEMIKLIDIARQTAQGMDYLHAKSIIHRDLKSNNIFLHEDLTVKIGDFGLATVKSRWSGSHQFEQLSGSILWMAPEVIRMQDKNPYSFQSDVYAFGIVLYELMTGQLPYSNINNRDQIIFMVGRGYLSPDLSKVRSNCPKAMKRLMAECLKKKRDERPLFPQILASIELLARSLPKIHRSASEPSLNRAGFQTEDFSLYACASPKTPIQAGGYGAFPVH", "experiment": "In vitro kinase assay (western blotting)", "assay_type": "biochemical", "settings": "12.5 to 50 nM", "experimental": "(§5) After incubated with 100–400 μM ATP in kinase assay buffer for 30 min, the phosphorylation of the substrate/total substrate protein was detected by western blotting. For ADP-glo kinase assay, unconsumed ATP was depleted with the addition of ADP-Glo™. Followed by kinase detection reagent to convert ADP to ATP, consumption of ATP was detected to evaluate the kinase activity. For more details, refer to the manufacturer’s instructions of ADP-Glo™ Kinase Assay.\n(§6) Figure S2. […] Enzyme kinetics parameters including Vmax and Km were obtained using the Michaelis double-reciprocal curve equation."}, "[14]": {"target": "T3, BRAF V600E (416-end) (Homo sapiens, UniProt P15056, V600E)", "T3 construct": "purchased Signal Chem B08-12G", "T3 sequence (P15056 416-766 V600E)": "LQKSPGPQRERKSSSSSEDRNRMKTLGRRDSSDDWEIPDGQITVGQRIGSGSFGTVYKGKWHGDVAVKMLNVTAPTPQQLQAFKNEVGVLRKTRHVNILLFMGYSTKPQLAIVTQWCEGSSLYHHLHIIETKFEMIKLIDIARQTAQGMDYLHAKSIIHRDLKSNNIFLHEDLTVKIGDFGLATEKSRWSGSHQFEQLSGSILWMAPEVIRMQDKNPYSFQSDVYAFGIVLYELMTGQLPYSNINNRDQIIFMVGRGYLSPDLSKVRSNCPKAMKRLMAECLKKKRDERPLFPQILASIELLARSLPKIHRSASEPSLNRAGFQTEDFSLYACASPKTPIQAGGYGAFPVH", "experiment": "In vitro kinase assay (western blotting)", "assay_type": "biochemical", "settings": "12.5 to 50 nM", "experimental": "as §5, §6"}}, "data": [{"smiles": "COc1ccc(CCc2cc(OC)c(OC)c(OC)c2)cc1O", "note": "[Erianin]", "values": [{"measurement": "body weight", "setting": "[1]", "value": "no significant reduction"}, {"measurement": "tumor volume", "setting": "[1]; vs vehicle-treated group", "value": "significant decrease"}, {"measurement": "body weight", "setting": "[2]", "value": "no significant reduction"}, {"measurement": "tumor volume", "setting": "[2]; vs vehicle-treated group", "value": "significant decrease"}, {"measurement": "bioavailability", "setting": "[3]", "value": "8 ± 1.1", "unit": "%"}, {"measurement": "tumor volume and tumor weight", "setting": "[4]", "value": "inhibited tumor volume and tumor weight significantly"}, {"measurement": "tumor volume and tumor weight", "setting": "[5]", "value": "inhibited tumor volume and tumor weight significantly"}, {"measurement": "binding in pull-down", "setting": "[6]", "value": "directly bound"}, {"measurement": "proliferation", "setting": "[7]", "value": "markedly suppress"}, {"measurement": "combination index (CI)", "setting": "[8]", "value": "≤ 1"}, {"measurement": "IC50", "setting": "[9]", "value": "12 ± 0.9", "unit": "nM"}, {"measurement": "IC50", "setting": "[10]", "value": "59.7 ± 7.2", "unit": "nM"}, {"measurement": "IC50", "setting": "[11]", "value": "20.6 ± 2.2", "unit": "nM"}, {"measurement": "IC50", "setting": "[12]", "value": "50.6 ± 1.7", "unit": "nM"}, {"measurement": "BRAF WT kinase activity", "setting": "[13]", "value": "could not suppress"}, {"measurement": "BRAF V600E kinase activity", "setting": "[14]", "value": "could not suppress"}]}]}
